The source of these data is patent publication US12435061B2 (priority 2020, dated 2025).

Data set [1] addresses T1, hTRPV3 (Homo sapiens (Human), UniProt Q8NET8). The data set is described as follows: Semi-auto patch clamp recording in nHEK cells (WT or TRPV3-mu transfected). The format is cell-based. On the procedure:
Compounds were tested at room temperature using the whole-cell patch clamp technique with a HEKA EPC 10 usb patch-clamp amplifier (HEKA Elektronik, Germany). Output signals from the amplifier were digitized and recorded with PatchMaster (v2x90.5 HEKA Elektronik, Germany). For quality control, the minimum seal resistance was set at 100 MΩ, and the outward current was stabilized with at least 1 nA of rectifying current at +80 mV while the inward current was stabilized with at least 300 pA of rectifying current at −80 mV.
NPC-1 Chips (Nanion, Germany) were used to trap a single cell. For both WT or transfected cells, chips of the categories 2-3 MOhm and 3-5 MOhm were used. Chips are disposable and each recording required a new chip. 5 μl of internal solution was applied in the inner pore of the chip, then it was screwed on top of the inner electrode. The upper unit of the patch lamp device was assembled over the chip, and 15 μl external buffer were added between the chip pore and the external electrode.
Basal nHEK cells at Passage 2 or 3 and at the density of 70-90% confluency were used for patch clamp or transfection. For patch-clamp, cells were suspended in TrypLE enzyme for 5 min in 37° C., and then harvested using KBM-Gold media. Cells were then centrifuged for 5 min at 110 g RT. Supernatant was then removed, and cells were re-suspended in the KBM-Gold media and maintained at RT until patch-clamp. After patch clamp system was initialized, and once cell was capture on the chip, media was washed together with free cells, and replaced by external buffer. For TRPV3-mu transfected cells, cells were maintained in KBM-Gold media containing 3 uM of the tested antagonist.
nHEK cells were transfected according to SOP KP-Lab-001.For patch clamp, cells were seeded in 12 well plate and harvested 24 hours after transfection according to the SOP section 2.8.2 “Cell preparation for patch clamp”.
For WT nHEK cells, the “intermediate protocol” in the semi-automatic Port-a-Patch device software was selected based on the parameters: initial sealing, measured by resistance, and its ability to maintain sealing along with assay.
The procedure was started with the “Startup procedure” protocol that validates chip contact and adjusts offset, then after the system was ready, 5 μl of cells suspended in extracellular buffer was added and the intermediate protocol was automatically launched.
When a cell was trapped by vacuum, the value “v-membrane” was raised by 100%, then 15 μl of sealing solution was added. The procedure continued automatically through all its steps until the final step “maintain the whole-cell”. At this step, the sealing solution was washed using three 20 μl washes with an external buffer, and the values C-fast and C-slow were adjusted twice using the “Auto E” buttons.
The sensitivity of reading was adjusted by changing the gain from 2.0 to 0.5.
To initiate recording, the “Ramp” protocol was initiated, and currents were recorded for several minutes until the signal remained stable for both inward and outward currents.
For TRPV3-mu transfected nHEK cells, a similar procedure was used, but with “Fragile protocol”, and the addition of the antagonist at the step of sealing.
Nanion's system automatically maintained cells in the holding potential of −40 mV. Then the voltage was ramped from […] for 160 ms. Finally, the voltage was stepped back to the holding potential (−40 mV). This voltage command protocol was repeated in cycles of 400 ms (FIG. 1).
The solution was then gently mixed and current recording resumed.
Within each cellular recording, the percent of control values were calculated for each test compound concentration-current response based on peak current in the presence of the agonist and full response.
Target sequence in this assay (Q8NET8 whole entry, looked up): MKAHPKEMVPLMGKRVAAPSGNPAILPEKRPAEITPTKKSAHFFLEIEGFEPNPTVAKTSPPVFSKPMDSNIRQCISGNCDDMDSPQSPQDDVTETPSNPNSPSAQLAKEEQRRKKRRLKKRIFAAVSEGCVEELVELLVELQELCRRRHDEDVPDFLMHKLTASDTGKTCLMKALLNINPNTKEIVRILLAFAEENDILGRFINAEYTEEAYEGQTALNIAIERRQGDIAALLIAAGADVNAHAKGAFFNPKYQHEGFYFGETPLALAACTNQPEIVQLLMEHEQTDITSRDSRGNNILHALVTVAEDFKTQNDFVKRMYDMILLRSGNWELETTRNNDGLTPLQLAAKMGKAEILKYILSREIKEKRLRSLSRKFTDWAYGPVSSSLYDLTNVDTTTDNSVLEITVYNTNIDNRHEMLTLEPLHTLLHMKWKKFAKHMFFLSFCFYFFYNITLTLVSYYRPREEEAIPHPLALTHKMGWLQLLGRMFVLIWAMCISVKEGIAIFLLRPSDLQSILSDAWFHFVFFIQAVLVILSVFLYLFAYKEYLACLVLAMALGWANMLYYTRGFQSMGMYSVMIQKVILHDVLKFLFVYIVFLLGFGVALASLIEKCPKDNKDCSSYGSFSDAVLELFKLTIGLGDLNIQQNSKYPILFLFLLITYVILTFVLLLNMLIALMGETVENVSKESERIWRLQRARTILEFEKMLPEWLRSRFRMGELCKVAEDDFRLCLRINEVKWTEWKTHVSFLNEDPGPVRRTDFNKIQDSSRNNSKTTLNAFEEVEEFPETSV

Data set [2] addresses T1, hTRPV3. Description: Whole-cell patch clamp, hTRPV3 Phase 1 / Phase 2 currents. The format is cell-based. The procedure, abridged: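 Currents are activated by 20 μM 2-APB or by perfusate at 28 °C or warmer, in Ringer's solution, and quantified at ±80 mV.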
Target sequence in this assay (Q8NET8 whole entry): as the sequence (Q8NET8 whole entry, looked up) above
In another data set the target is rat (r) TRPV3 (Rattus norvegicus, UniProt E9PU00). The data set is described as follows: Whole-cell patch clamp, rTRPV3 Phase 1 / Phase 2 currents. In kind it is cell-based. The source says:
Whole-cell patch clamp experiments permit the detection of currents through the TRPV3 channel in the cell line described above. A glass electrode is brought into contact with a single cell and the membrane is then ruptured, permitting control of the voltage of the cell membrane and measurement of currents flowing across the membrane using the amplifier attached to the electrode. A perfusion system permits control of the extracellular solution, including the addition of blockers and activators of the current. The current can be activated by heating this solution to 28° C. or warmer or by addition of 20 μM 2-APB to the solution.
TRPV3 cells were induced 20-48 hours, removed from growth plates, and replated at low density (to attain good single-cell physical separation) on glass coverslips for measurement. In some cases, cells were grown in low density overnight on glass coverslips. Patch clamp recordings were made in the whole-cell mode with a holding potential of −40 mV. Every 5 seconds, a voltage ramp was applied from −120 to +100 mV, 400 ms in duration. Currents elicited were quantified at −80 mV and +80 mV. The internal solution consisted of 140 mM cesium aspartate, 10 mM EGTA, 2.27 mM MgCl2, 1.91 mM CaCl2) and 10 mM HEPES, pH to 7.2 with KOH; with 50 nM calculated free […]. External solution was Ringer's solution described above. Upon addition of 2-APB or upon heating of the extraceullar solution as described above, TRPV3 current was induced only in TRPV3-expressing cells and not in parental HEK293 TREx cells. […] Removal of the stimulus caused most of the current to go away, and inhibitor addition could still inhibit this current.
In Tables 3 and 4, Phase 1 refers to Phase 1 current for human (h) TRPV3 or rat (r) TRPV3, and Phase 2 refers to Phase 2 current for human (h) TRPV3 or rat (r) TRPV3. The hTRPV3 and rTRPV3 assays were performed as described herein. hERG refers to the inhibition the human ERG (hERG) channel. NaV1.5, refers to the pore forming aL-subunit of the voltage-dependent cardiac Na(+) channel and is an integral membrane protein involved in the initiation and conduction of action potentials. hTRPV3 HAMA IC50 refers to the IC50 of TRPV3 cells stably expressed in TRex-293 cells. Solubility Ringer refers to the compounds' solubility in Ringer's solution. LM T1/2 refers to liver microsome half-lives in either rat or human liver microsomes. FLIPR IC50 refers to the IC50 of the test compounds against recombinant hTRPV3 cells.

The target of data set [3] is T1, hTRPV3. Description: hTRPV3 HAMA IC50 assay (Hamamatsu FDSS6000 calcium flux, TRex-293 cells). The settings on record: 5 min.
Target sequence in this assay (Q8NET8 whole entry): as the sequence (Q8NET8 whole entry, looked up) above
Protocol: IC50s were calculated using CBIS from ChemInnovation (San Diego).
Data set [4] is described as follows: Aqueous solubility assay in Normal Ringer Solution. On the procedure:
Following vortex and incubation for a sufficient time (e.g. 40 minutes at room temperature), solutions were filtered, quenched with acetonitrile, and analyzed by Liquid Chromotography. Solubility Limits were determined by comparison to a standard curve.

The nature of data set [5]: Metabolic Stability assay, rat liver microsomes. The format is in vitro ADME. To be noted: read-out: LM T1/2 (min) (rat). The method in brief:
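Reactions in human or rat liver microsomes at 37 °C were started with an NADPH-regenerating system, using 1 μM compound initially. Samples were taken at 0, 7, 15, 30 and 60 min, quenched in ice-cold acetonitrile/MeOH/H2O, and quantified by HPLC/MS/MS.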

Where [6] appears, read: Phase 1 current, inward, whole-cell patch clamp, read-out: hTRPV3 Patch P1 Inwd.
[7] abbreviates: Phase 1 current, read-out: hTRPV3 (nM) (Phase 1).
Setting [8] is: Phase 1 current, read-out: rTRPV3 (nM) (Phase 1).
The mark [9] stands for this setting: Phase 2 current, read-out: rTRPV3 (nM) (Phase 2).

Converted amounts (≈) assume the structure as drawn. Where two headings read alike, the source gives them in different places.

rat (r) TRPV3, sequence (E9PU00 1-791): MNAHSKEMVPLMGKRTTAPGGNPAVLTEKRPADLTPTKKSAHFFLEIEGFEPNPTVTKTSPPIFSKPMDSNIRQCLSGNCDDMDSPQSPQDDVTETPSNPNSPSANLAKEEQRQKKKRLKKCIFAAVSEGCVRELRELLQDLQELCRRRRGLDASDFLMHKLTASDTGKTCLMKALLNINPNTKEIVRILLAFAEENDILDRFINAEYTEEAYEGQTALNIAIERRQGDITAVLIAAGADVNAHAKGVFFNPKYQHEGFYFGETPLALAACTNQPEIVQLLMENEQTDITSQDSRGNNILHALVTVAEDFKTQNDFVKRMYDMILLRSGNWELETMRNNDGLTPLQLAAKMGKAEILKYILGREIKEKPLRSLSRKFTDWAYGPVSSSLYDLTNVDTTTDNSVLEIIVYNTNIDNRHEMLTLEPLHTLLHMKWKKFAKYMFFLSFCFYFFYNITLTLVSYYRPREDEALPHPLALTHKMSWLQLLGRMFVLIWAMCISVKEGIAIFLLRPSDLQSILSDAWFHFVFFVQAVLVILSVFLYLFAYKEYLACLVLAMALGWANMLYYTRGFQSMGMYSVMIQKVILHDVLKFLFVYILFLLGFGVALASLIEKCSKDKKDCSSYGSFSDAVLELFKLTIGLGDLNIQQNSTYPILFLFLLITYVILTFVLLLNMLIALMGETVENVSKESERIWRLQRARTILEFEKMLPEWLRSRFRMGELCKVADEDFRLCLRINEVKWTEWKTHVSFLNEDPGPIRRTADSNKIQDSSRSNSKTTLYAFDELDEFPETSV

At hTRPV3 [1], `CC(C)c1ccccc1-c1ccc([C@H]2CCN(C(=O)c3ccc(F)cn3)C2)c(CO)c1` (stereo in doubt) [KM-002-E1, (5-Fluoro-pyridin-2-yl)-[3-(3-hydroxymethyl-2′-isopropyl-biphenyl-4-yl)-pyrrolidin-1-yl]-methanone] came in with an IC50 below 10 nM.

Consider `Cc1nc(C(=O)N2CC[C@H](c3ccc(-c4ccccc4C4CC4)cc3CO)C2)ccc1O` (stereo in doubt) [KM-023-E1, [3-(2′-Cyclopropyl-3-hydroxymethyl-biphenyl-4-yl)-pyrrolidin-1-yl]-(5-hydroxy-6-methyl-pyridin-2-yl)-methanone], for which the IC50 on hTRPV3 [1] was below 10 nM.

Turning to `COc1cncc(C(=O)N2CC[C@H](c3ccc(-c4ccccc4C4CC4)cc3CO)C2)n1` (stereo in doubt) [KM-031-E1, [3-(2′-Cyclopropyl-3-hydroxymethyl-biphenyl-4-yl)-pyrrolidin-1-yl]-(6-methoxy-pyrazin-2-yl)-methanone], on hTRPV3 [1], the IC50 lay within 10 to 100 nM.

Regarding `Cc1cncc(C(=O)N2CC[C@H](c3ccc(-c4ccccc4C4CC4)cc3CO)C2)n1` (stereo in doubt) [KM-032-E1, [3-(2′-Cyclopropyl-3-hydroxymethyl-biphenyl-4-yl)-pyrrolidin-1-yl]-(6-methyl-pyrazin-2-yl)-methanone], at hTRPV3 [1], the IC50 was in the range of 10 to 100 nM.

`COCc1cccc(C(=O)N2CC[C@H](c3ccc(-c4ccccc4C4CC4)cc3CO)C2)n1` (stereo in doubt) [KM-036-E1, [3-(2′-Cyclopropyl-3-hydroxymethyl-biphenyl-4-yl)-pyrrolidin-1-yl]-(6-methoxymethyl-pyridin-2-yl)-methanone] displayed an IC50 against hTRPV3 [1] of 10 to 100 nM.

Regarding `CNc1cncc(C(=O)N2CC[C@H](c3ccc(-c4ccccc4C4CC4)cc3CO)C2)n1` (stereo in doubt) [KM-054-E1, [3-(2′-Cyclopropyl-3-hydroxymethyl-biphenyl-4-yl)-pyrrolidin-1-yl]-(6-methylamino-pyrazin-2-yl)-methanone], the IC50 against hTRPV3 [1] was below 10 nM.

Consider `NC(=O)c1cc(-c2ccccc2)ccc1N1CC[C@@H](Oc2ccc(C(F)(F)F)cn2)C1` [Compound 1-33, (R)-4-(3-(5-(trifluoromethyl)pyridin-2-yloxy)pyrrolidin-1-yl)biphenyl-3-carboxamide], for which the IC50 at hTRPV3 [2] (setting [6]) is 100 to 1000 nM; on hTRPV3 [2] (setting [7]), 139 nM; on rat (r) TRPV3 (setting [8]), 283 nM; on rat (r) TRPV3 (setting [9]), 776 nM. In addition, on hTRPV3 [3], the “hTRPV3 HAMA IC50 (nM) (5 min)” value is reported as “no fit (5 min)”.

`NC(=O)c1cc(-c2ccc(F)cc2)ccc1N1CC[C@H](Oc2ccc(C(F)(F)F)cn2)C1` [Compound 1-65, (S)-4′-fluoro-4-(3-(5-(trifluoromethyl)pyridin-2-yloxy)pyrrolidin-1-yl)biphenyl-3-carboxamide]: the IC50 is 100 to 1000 nM at hTRPV3 [2] (setting [6]); 475 nM on hTRPV3 [2] (setting [7]); 100 to 1000 nM on hTRPV3 [2] (Phase 2 current, inward, whole-cell patch clamp, read-out: hTRPV3 Patch P2 Inwd); 417 nM at hTRPV3 [2] (Phase 2 current, read-out: hTRPV3 (nM) (Phase 2)); 1140 nM on rat (r) TRPV3 (setting [8]); 3250 nM on rat (r) TRPV3 (setting [9]). Further, the “Solubility Ringer (nM)” value in data set [4] (Normal Ringer Solution, room temperature) is listed as “BLQ”. Moreover, the half-life at 1 μM in data set [5] was found to be 77.3 min. For the same molecule, on hTRPV3 [3], the “hTRPV3 HAMA IC50 (nM) (5 min)” value is reported as “no fit (5 min)”.

With `OCc1cc(C(O)c2ccccc2Cl)ccc1N1CC[C@H](Oc2ncccc2Cl)C1` (stereo partly drawn) [Compound 1-262, (2-chlorophenyl)(4-((S)-3-(3-chloropyridin-2-yloxy)pyrrolidin-1-yl)-3-(hydroxymethyl)phenyl)methanol], the IC50 on hTRPV3 [2] (setting [6]) is 10 to 100 nM; at hTRPV3 [2] (setting [7]), 23.7 nM; on rat (r) TRPV3 (setting [8]), around 20 nM; on rat (r) TRPV3 (setting [9]), 21.3 nM. In addition, in data set [4] (saline or isotonic, kinetic from dmso stock), the solubility at 40 min was around 4.7 µM (≈ 2.09 µg/mL). Also, the half-life at 1 μM in data set [5] came out at 14.6 min.

As to `CC(C)c1ccccc1-c1ccc([C@@H]2CCN(C(=O)c3ccc(F)cn3)C2)c(CO)c1` [KM-002-E2], on hTRPV3 [1], the IC50 was in the range of 10 to 100 nM.

`COCc1cccc(C(=O)N2CCC(c3ccc(-c4ccccc4C4CC4)cc3CO)C2)n1` (stereo not drawn) [KM-036] displayed an IC50 on hTRPV3 [1] of 10 to 100 nM.

At hTRPV3 [1], `CNc1cncc(C(=O)N2CCC(c3ccc(-c4ccccc4C(C)C)cc3CO)C2)n1` (stereo not drawn) [KM-069, [3-(3-Hydroxymethyl-2′-isopropyl-biphenyl-4-yl)-pyrrolidin-1-yl]-(6-methylamino-pyrazin-2-yl)-methanone] yielded an IC50 of 10 to 100 nM.

Molecule `COCc1cncc(C(=O)N2CCC(c3ccc(-c4ccccc4C4CC4)cc3CO)C2)n1` (stereo not drawn) [KM-070, [3-(2′-Cyclopropyl-3-hydroxymethyl-biphenyl-4-yl)-pyrrolidin-1-yl]-(6-methoxymethyl-pyrazin-2-yl)-methanone] returned an IC50 on hTRPV3 [1] of 10 to 100 nM.

`COc1cncc(C(=O)N2CCC(c3ccc(-c4cccc5c4CCC5)cc3CO)C2)n1` (stereo not drawn) [KM-071, [3-(2-Hydroxymethyl-4-indan-4-yl-phenyl)-pyrrolidin-1-yl]-(6-methoxy-pyrazin-2-yl)-methanone] showed an IC50 against hTRPV3 [1] of 10 to 100 nM.

In turn, `Cc1nc(C(=O)N2CCC(c3ccc(-c4ccc(F)cc4C4CC4)cc3CO)C2)ccc1O` (stereo not drawn) [KM-084] registered an IC50 on hTRPV3 [1] of 10 to 100 nM.

`Cc1nc(C(=O)N2CCC(c3ccc(-c4cc(F)ccc4C4CC4)cc3CO)C2)ccc1O` (stereo not drawn) [KM-085] showed an IC50 against hTRPV3 [1] below 10 nM.
